Bridge positions count the residues as written; N and C are the ends. Square brackets hold non-standard residues; d marks the D form. Peptide text beside a SMILES is read from it. NMePhe(4-COOH) = CN[C@@H](Cc1ccc(C(=O)O)cc1)C(=O)O; 3Pal(6-NH2) = Nc1ccc(C[C@H](N)C(=O)O)cn1; NMeW = CN[C@@H](Cc1c[nH]c2ccccc12)C(=O)O; Lys(N3) = [N-]=[N+]=NCCCC[C@H](N)C(=O)O; Nva(3-Et) = CCC(CC)[C@H](N)C(=O)O; NMeF = CN[C@@H](Cc1ccccc1)C(=O)O
Assays:
[1] = target: T1, human transferrin receptor (hTfR) (Homo sapiens, UniProt P02786); assay: SPR measurement under pH 6.0 conditions (Biacore T200, NTA chip, immobilized hTfR); assay type: binding; details: SPR, pH 6.0; Table 1-3-2-2; read-out: hTfR SPR pH6.0 KD
T1 sequence (P02786 whole entry): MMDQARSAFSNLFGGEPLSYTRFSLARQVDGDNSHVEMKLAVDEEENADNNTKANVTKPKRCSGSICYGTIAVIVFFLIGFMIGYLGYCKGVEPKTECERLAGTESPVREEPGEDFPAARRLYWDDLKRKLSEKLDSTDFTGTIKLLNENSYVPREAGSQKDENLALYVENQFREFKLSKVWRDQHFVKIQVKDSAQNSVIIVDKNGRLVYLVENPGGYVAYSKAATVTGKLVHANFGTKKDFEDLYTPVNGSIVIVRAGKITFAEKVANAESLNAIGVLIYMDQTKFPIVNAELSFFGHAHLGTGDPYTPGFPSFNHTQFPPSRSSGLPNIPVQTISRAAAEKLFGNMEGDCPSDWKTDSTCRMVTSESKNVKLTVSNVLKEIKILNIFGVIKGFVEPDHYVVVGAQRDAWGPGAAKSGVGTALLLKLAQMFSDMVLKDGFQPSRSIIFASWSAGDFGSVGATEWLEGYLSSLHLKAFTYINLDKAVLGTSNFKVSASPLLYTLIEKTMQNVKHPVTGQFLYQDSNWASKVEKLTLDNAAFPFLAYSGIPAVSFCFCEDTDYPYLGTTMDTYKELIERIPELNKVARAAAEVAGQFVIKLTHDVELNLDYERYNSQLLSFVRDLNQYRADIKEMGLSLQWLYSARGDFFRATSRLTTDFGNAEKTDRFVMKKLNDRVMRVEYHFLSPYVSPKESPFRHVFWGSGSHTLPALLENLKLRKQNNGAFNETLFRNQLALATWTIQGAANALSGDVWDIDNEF

[2] = target: T1, human transferrin receptor (hTfR); assay: SPR measurement under pH 7.4 conditions (Biacore T200, CM3 chip, hTfR captured by His Tag antibody); assay type: binding; details: SPR, pH 7.4; Table 1-3-2-2; read-out: hTfR SPR pH7.4 KD

| Kd [1] | Kd [2] | SMILES |
| --- | --- | --- |
| 121 nM | 136 nM | CCC(CC)[C@@H]1NC(=O)[C@H](Cc2ccc(OC)cc2)NC(=O)[C@H](Cc2ccc(N)nc2)NC(=O)[C@H](CC(N)=O)NC(=O)[C@H](Cc2cnc3ccccn23)NC(=O)[C@H](C(C)C)NC(=O)[C@H](Cc2cccc(Cl)c2)N(C)C(=O)[C@H](C(C)C)NC(=O)[C@H](C)NC(=O)CSC[C@@H](C(=O)NCC(=O)N[C@H](CCC(=O)O)C(=O)N[C@H](CCC(=O)O)C(=O)N[C@H](CCC(=O)O)C(=O)N[C@H](CO)C(=O)N[C@H](CO)C(=O)N[C@@H](CCCCN=[N+]=[N-])C(N)=O)NC(=O)[C@H](Cc2ccc(C(=O)O)cc2)N(C)C(=O)[C@H](Cc2ccncc2)NC(=O)[C@H](CCCNC(=N)N)NC(=O)[C@H](CCCNC(=N)N)NC(=O)[C@H]([C@@H](C)CC)NC1=O [compound 184] |
| 381 nM | 28.7 nM | CC[C@H](C)[C@@H]1NC(=O)[C@H](Cc2ccc(OC)cc2)NC(=O)[C@H](Cc2ccc(N)nc2)NC(=O)[C@H](CC(N)=O)NC(=O)[C@H](Cc2cnc3ccccn23)NC(=O)[C@H](C(C)C)NC(=O)[C@H](Cc2cccc(Cl)c2)N(C)C(=O)[C@H](C(C)C)NC(=O)[C@H](C)NC(=O)CSC[C@@H](C(=O)NCC(=O)N[C@H](CCC(=O)O)C(=O)N[C@H](CCC(=O)O)C(=O)N[C@H](CCC(=O)O)C(=O)N[C@H](CO)C(=O)N[C@H](CO)C(=O)N[C@@H](CCCCN=[N+]=[N-])C(N)=O)NC(=O)[C@H](Cc2ccc(O)cc2)N(C)C(=O)[C@H](Cc2ccncc2)NC(=O)[C@H](CCCNC(=N)N)NC(=O)[C@H](CCCNC(=N)N)NC(=O)[C@H]([C@@H](C)CC)NC1=O [compound 185] |
| 30.7 nM | 9.9 nM | CCC(CC)[C@@H]1NC(=O)[C@H](Cc2ccc(O)cc2)NC(=O)[C@H](Cc2ccc(N)nc2)NC(=O)[C@H](CC(N)=O)NC(=O)[C@H](Cc2c[nH]c3ccccc23)N(C)C(=O)[C@H](C(C)C)NC(=O)[C@H](Cc2ccccc2)N(C)C(=O)[C@H](C(C)C)NC(=O)[C@H](C)NC(=O)CSC[C@@H](C(=O)NCC(=O)N[C@@H](CCCCN=[N+]=[N-])C(N)=O)NC(=O)[C@H](Cc2ccc(C(=O)O)cc2)N(C)C(=O)[C@H](Cc2ccc(O)cc2)NC(=O)[C@H](CCCNC(=N)N)NC(=O)[C@H](CCCCN)NC(=O)[C@H]([C@@H](C)CC)NC1=O [compound 187] ({CH2CO}-AV[NMeF]V[NMeW]N[3Pal(6-NH2)]Y[Nva(3-Et)]IKRY[NMePhe(4-COOH)]CG[Lys(N3)]-NH2; thioether N-15) |
| 175 nM | 34 nM | CCC(CC)[C@@H]1NC(=O)[C@H](Cc2ccc(O)cc2)NC(=O)[C@H](Cc2ccc(N)nc2)NC(=O)[C@H](CC(N)=O)NC(=O)[C@H](Cc2c[nH]c3ccccc23)N(C)C(=O)[C@H](C(C)C)NC(=O)[C@H](Cc2ccccc2)N(C)C(=O)[C@H](C(C)C)NC(=O)[C@H](C)NC(=O)CSC[C@@H](C(=O)NCC(=O)N[C@H](CCC(=O)O)C(=O)N[C@H](CCC(=O)O)C(=O)N[C@H](CCC(=O)O)C(=O)N[C@H](CO)C(=O)N[C@H](CO)C(=O)N[C@@H](CCCCN=[N+]=[N-])C(N)=O)NC(=O)[C@H](Cc2ccc(C(=O)O)cc2)N(C)C(=O)[C@H](Cc2ccc(O)cc2)NC(=O)[C@H](CCCNC(=N)N)NC(=O)[C@H](CCCCN)NC(=O)[C@H]([C@@H](C)CC)NC1=O [compound 188] ({CH2CO}-AV[NMeF]V[NMeW]N[3Pal(6-NH2)]Y[Nva(3-Et)]IKRY[NMePhe(4-COOH)]CG[dE][dE][dE][dS][dS][Lys(N3)]-NH2; thioether N-15) |

Reference: patent EP4667483A1, “HUMAN TRANSFERRIN RECEPTOR-BINDING PEPTIDE” (JCR Pharmaceuticals Co., Ltd., priority 2023, dated 2024)
